Assay results from patent US9113629B2, “4-amino-6-(4-substituted-phenyl)-picolinates and 6-amino-2-(4-substituted-phenyl)-pyrimidine-4-carboxylates and their use as herbicides” (DOW AGROSCIENCES LLC, priority 2013, dated 2015).
Like-named read-outs stand apart in the source and are kept apart here.

Assays:
[1] = tested on: Key Grass and Sedge Weeds as well as Grass Crops; test: Post-emergent Test II herbicidal activity (Table 6); format: in vivo; settings: post-emergence, 336 h; for pest or weed control at 70 g/ha: 70 g ai/ha; for pest or weed control at 140 g/ha: 140 g ai/ha
Outline: (§1)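 Test species were raised 7–21 d under greenhouse conditions until reaching the first or second true leaf, sprayed with formulated compound at 187 L/ha, and kept subirrigated to avoid wash-off. Fourteen days later, damage was rated visually on a 0–100% scale against untreated plants.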

[2] = tested on: Key Broadleaf Weed and Crop Species; test: Post-emergent Test II herbicidal activity (Table 5); format: in vivo; settings: post-emergence, 336 h, 14 days after application; for pest or weed control at 70 g/ha: application rate 70 g ai/ha; for pest or weed control at 140 g/ha: application rate 140 g ai/ha
Outline: as §1

[3] = CYPES: yellow nutsedge (Cyperus esculentus), read-out: Visual Growth Reduction (%) 14 Days After Application, CYPES
[4] = DIGSA: crabgrass (Digitaria sanguinalis), read-out: Visual Growth Reduction (%) 14 Days After Application, DIGSA
[5] = ECHCG: barnyardgrass (Echinochloa crus-galli), read-out: Visual Growth Reduction (%) 14 Days After Application, ECHCG
[6] = ORYSA: rice (Oryza sativa), crop, read-out: Visual Growth Reduction (%) 14 Days After Application, ORYSA
[7] = SETFA: giant foxtail (Setaria faberi), read-out: Visual Growth Reduction (%) 14 Days After Application, SETFA
[8] = SORVU: grain sorghum (Sorghum vulgare), read-out: Visual Growth Reduction (%) 14 Days After Application, SORVU
[9] = TRZSS (wheat, Triticum aestivum), crop, read-out: Visual Growth Reduction (%) 14 Days After Application, TRZSS
[10] = ZEAMX: maize, corn (Zea mays), crop, read-out: Visual Growth Reduction (%) 14 Days After Application, ZEAMX
[11] = ABUTH: velvetleaf (Abutilon theophrasti), read-out: Visual Growth Reduction (%) 14 Days After Application, ABUTH
[12] = AMARE: redroot pigweed (Amaranthus retroflexus), read-out: Visual Growth Reduction (%) 14 Days After Application, AMARE
[13] = BRSNN: oilseed-rape, canola (Brassica napus), read-out: Visual Growth Reduction (%) 14 Days After Application, BRSNN
[14] = CHEAL: lambsquarters (Chenopodium album), read-out: Visual Growth Reduction (%) 14 Days After Application, CHEAL
[15] = EPHHL: wild poinsettia (Euphorbia heterophylla), read-out: Visual Growth Reduction (%) 14 Days After Application, EPHHL
[16] = HELAN: sunflower (Helianthus annuus), read-out: Visual Growth Reduction (%) 14 Days After Application, HELAN
[17] = VIOTR: wild pansy (Viola tricolor), read-out: Visual Growth Reduction (%) 14 Days After Application, VIOTR

## COC(=O)c1nc(-c2ccc(OC(F)F)cc2)c(F)c(N)c1Cl [Compound 85]
[1]; [3]
  pest or weed control at 70 g/ha: 85 to 94%
  pest or weed control at 140 g/ha: 85 to 94%
[1]; [4]
  pest or weed control at 70 g/ha: 30 to 44%
  pest or weed control at 140 g/ha: 30 to 44%
[1]; [5]
  pest or weed control at 70 g/ha: 95 to 100%
  pest or weed control at 140 g/ha: 95 to 100%
[1]; [6]
  pest or weed control at 70 g/ha: 0 to 29%
  pest or weed control at 140 g/ha: 0 to 29%
[1]; [7]
  pest or weed control at 70 g/ha: 45 to 59%
  pest or weed control at 140 g/ha: 75 to 84%
[1]; [8]
  pest or weed control at 70 g/ha: 75 to 84%
  pest or weed control at 140 g/ha: 85 to 94%
[1]; [9]
  pest or weed control at 70 g/ha: 30 to 44%
  pest or weed control at 140 g/ha: 30 to 44%
[1]; [10]
  pest or weed control at 70 g/ha: 75 to 84%
  pest or weed control at 140 g/ha: 75 to 84%
[2]; [11]
  pest or weed control at 70 g/ha: 95 to 100%
  pest or weed control at 140 g/ha: 95 to 100%
[2]; [12]
  pest or weed control at 70 g/ha: 95 to 100%
  pest or weed control at 140 g/ha: 95 to 100%
[2]; [13]
  pest or weed control at 70 g/ha: 45 to 59%
  pest or weed control at 140 g/ha: 60 to 74%
[2]; [14]
  pest or weed control at 70 g/ha: 85 to 94%
  pest or weed control at 140 g/ha: 95 to 100%
[2]; [15]
  pest or weed control at 70 g/ha: 95 to 100%
  pest or weed control at 140 g/ha: 95 to 100%
[2]; [16]
  pest or weed control at 70 g/ha: 85 to 94%
  pest or weed control at 140 g/ha: 95 to 100%
[2]; [17]
  pest or weed control at 70 g/ha: 0 to 29%
  pest or weed control at 140 g/ha: 0 to 29%
